{"source": "patent US12704458B2", "about": "“Critical angle reflection imaging for quantification of molecular interactions” (ARIZONA BOARD OF REGENTS ON BEHALF OF ARIZONA STATE …, priority 2020, dated 2026)", "key": {"[1]": {"system": "glycoproteins on fixed HeLa cells", "experiment": "SPR imaging of WGA binding to glycoproteins on fixed HeLa cells", "conditions": "gold surface, 50 μg/ml WGA, average of 10 cells", "protocol": "SPR was first used to measure glycoprotein-WGA interaction on fixed HeLa cells (FIG. 7a). The cells were cultured on a gold surface and fixed right before the measurement (FIG. 7b). PBS buffer was flowed over the surface to establish a baseline and then introduced 50 μg/ml WGA (FIG. 7c). Binding of WGA to the glycoproteins increased the surface refractive index and caused the SPR signal to increase. After the association process, PBS buffer was flowed in again to induce dissociation of WGA from the cells. […] The WGA was labeled with Alexa Fluor 488, allowing verification of the binding using fluorescence. Three fluorescence images were captured at different phases of the binding process: at the baseline, after association, and after dissociation (FIG. 7d) respectively. The fluorescence change, although weak, confirmed that the SPR signal was due to the binding.\n(§1) All the cell-related experiments including CAR, SPR, transmitted and fluorescence measurements (FIGS. 7-9) were performed on an objective-based SPR microscope setup, which consisted of an inverted microscope (Olympus IX-81) and a 60× (NA 1.49) oil-immersion objective. The light source for CAR and SPR imaging was a superluminescent light emitting diode (SLD-260-HP-TOW-PD-670, Superlum, Ireland) with 670 nm wavelength. The light source for transmitted and fluorescence imaging were the stocking halogen and mercury lamp of the microscope, respectively. A CMOS camera (ORCA-Flash 4.0, Hamamatsu) was used to record the images. A gravity-based drug perfusion system (SF-77B, Warner Instruments, Connecticut) was used for delivering analytes to the cells.\nHeLa, SH-EP1, and SH-EP1_α4β2 cells were obtained from the American Type Culture Collection. […]\n(§2) WinSpall 3.01 (Resonant Technologies GmbH, Germany) was used to calculate the reflectivity as a function of incident angle for CAR and SPR. The recorded CAR and SPR images were processed with ImageAnalysis (Biosensing Instrument Inc.) and Fiji. […]"}, "[2]": {"system": "glycoproteins on fixed HeLa cells", "experiment": "CAR imaging of WGA binding to glycoproteins on fixed HeLa cells", "conditions": "glass surface, ~61.0 degrees, 50 μg/ml WGA, average of the 9 cells", "protocol": "Next, CAR imaging was used to repeat the glycoprotein-WGA binding measurement. The cells were cultured on a glass surface, and the bright field image and the corresponding CAR image of 9 cells are shown in FIG. 7e. The cells show dark patterns because they have higher refractive index than the background. θi was set at ~61.0 degrees with similar sensitivity to SPR. […] The minor disagreement in kinetic constants might reflect different surfaces and different light illumination depth between SPR and CAR. Fluorescence images captured during the CAR measurement confirmed the binding of WGA (FIG. 7g). […] For this reason, CAR is believed to be more compatible with fluorescence than SPR, and suitable for measuring biological samples that need simultaneous fluorescent labelling.\nas §1\nHeLa, SH-EP1, and SH-EP1_α4β2 cells were obtained from the American Type Culture Collection. The cells were cultured in Dulbecco's modified eagle medium (Lonza) with 10% fetal bovine serum (Invitrogen) and 1% penicillin and streptomycin in a humidified incubator at 37° C. with 5% CO2. […]\nas §2"}}, "data": [{"substance": "WGA: lectin that specifically binds N-acetylglucosamine structures in glycoproteins; with Alexa Fluor 488 tag, Thermo Fisher Scientific", "values": [{"measurement": "Kd", "setting": "[1]", "value": "0.053 ± 0.001", "unit": "µM"}, {"measurement": "ka", "setting": "[1]", "value": "(2.5±0.1)×10^3 M^−1s^−1"}, {"measurement": "kd", "setting": "[1]", "value": "(1.3±0.1)×10^−4 s^−1"}, {"measurement": "Kd", "setting": "[2]", "value": "0.042 ± 0.001", "unit": "µM"}, {"measurement": "ka", "setting": "[2]", "value": "(6.0±0.1)×10^3 M^−1s^−1"}, {"measurement": "kd", "setting": "[2]", "value": "(2.6±0.1)×10^−4 s^−1"}]}]}
